Experimental data published in patent US20220370381A1 (priority 2016, published 2022).

What was measured:
Swiss OF-1 mice = assay: Spontaneous alternation in the Y-maze, dizocilpine-induced deficit; format: in vivo, mouse
[1] = test system: homozygous scn1Lab−/− mutant zebrafish; assay: Locomotor (behavioral) assay in homozygous scn1Lab−/− mutant zebrafish larvae (Dravet syndrome model); format: in vivo; conditions: 25, 50 or 100 μM for 24 h, 6 dpf larvae; p<0.05 vs. VHC
Description: ZF larvae were treated on 6 dpf with vehicle (VHC, 0.1% dimethyl sulfoxide, DMSO, or FA (25, 50 or 100 μM) for 24 h. Thereafter, the locomotor activity (behavior) was monitored by an automated tracking device. Subsequently, forebrain local field potentials and forebrain activity (LFPs, brain activity) were measured to confirm anticonvulsant effects of FA treatment, if indicated by the behavioral assays.

Sigma non-selective = assay: Competitive radioligand binding assay, sigma non-selective; set-up: species or system Guinea pig; conditions: test article 1×10^−6 and 1×10^−5 mol/L; guinea pig brain
Sigma 1 = Sigma 1 (Cavia porcellus, UniProt Q60492); assay: Sigma-1 receptor tissue bioassay, guinea pig vas deferens, antagonist activity ((+)SKF-10047-induced response); set-up: Segments of guinea pig vas deferens were suspended in 20-ml organ baths; from tissue; host or cells: guinea pig vas deferens
Sequence of Sigma 1 (Q60492 whole entry): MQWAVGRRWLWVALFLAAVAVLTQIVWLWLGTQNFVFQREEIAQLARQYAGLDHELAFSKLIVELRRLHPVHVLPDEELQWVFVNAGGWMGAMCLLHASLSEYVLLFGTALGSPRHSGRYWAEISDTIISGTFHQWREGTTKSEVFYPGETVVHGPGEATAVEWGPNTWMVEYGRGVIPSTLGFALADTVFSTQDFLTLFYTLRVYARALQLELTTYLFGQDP

CCNC(C)Cc1cccc(C(F)(F)F)c1 (racemic) [fenfluramine, (RS)—N-ethyl-1-[3-(trifluoromethyl)phenyl]propan-2-amine]
dizocilpine-induced deficit of spontaneous alternation (Swiss OF-1 mice; dizocilpine […], most active doses 0.3 and 1 mg/kg IP): significantly attenuated | interaction with PRE-084 (sigma-1 receptor behaviour in vivo) (Swiss OF-1 mice; fenfluramine at maximal inactive dose (0.1), Y-maze and passive avoidance data): behaves as a sigma-1 receptor PAM | epileptiform behavior (locomotor activity) [1]: significantly decreased | inhibition of receptor binding (tracer) (Sigma non-selective): significantly inhibit | behaviour at the sigma receptor (mode of action) (Sigma 1; conclusion from guinea pig vas deferens tissue bioassay): positive allosteric modulators | effect on the (+)SKF-10,047-induced increase in twitch contraction amplitude (Sigma 1; field-stimulated guinea pig vas deferens, (+)SKF-10047 100 μM): slightly increased
